Source: patent publication US20070166547A1, “Use of a layer consisting of hydrophobic linear, or two-dimensional polycyclic aromatics as a barrier layer or an encapsulation and electric components constructed with a layer of this type and comprising organic polymers” (priority 2003, published 2007)

Legend:
[1] = Polarographic study of electrochemical reduction (electrochemical activity); format: physicochemical; conditions: for half-wave potential more positive on reverse stroke than on forward stroke: reverse stroke vs forward stroke; for number of electrons participating in the reduction: calculated with the Geirovsky-Ilkovich equation; for i, mkA (polarographic wave current) / −E1/2, V (half-wave potential vs SCE): 37° C., forward trace, average for the group; for i, mkA (polarographic wave current): 9·10^−4 M
Protocol: The study was carried out on a general-purpose polarograph PU-1 with a two-coordinate recorder of the “LKD” type using a three-electrode thermostatically controlled polarographic cell and mercury dripping electrode (MDE) with forced separation of the drop and a dropping period of 0.5 second. A platinum wire was used as an auxiliary electrode and a saturated calomel electrode (SCE) was used as a control electrode.
2.0% solutions of sodium chloride having pH 7.0, 7.2, 7.4, 7.6 were used as a background; the pH values of the background solution were corrected by a solution of sodium hydroxide. The polarographic cell was filled with 5.0 ml of the background solution and for 5 minutes was purged with nitrogen for removing the dissolved oxygen. Then 0.5 ml of solution of the studied substance was added to the background solution, and the polarogram was recorded as a polarographic wave. The concentration of the compounds in the polarographic cell was 9·10^−4 M.
The pH was measured on the pH-meter with an accuracy of ±0.05 pH units. The polarographic measurements were carried out at a temperature of 37° C. The recording of polarograms of the investigated materials was effected under conditions of DC current at a scanning rate of the potential 10.0 mV/s with a active scanning stroke from a potential 0 to −0.5 V and sweep retrace from a −0.5 V to 0. The electric-current sensitivity was 5.0 mkA. The scale by the coordinate of the potentials was 50.0 mV/cm. The values of potentials of the half-wave E1/2 of the investigated materials are given with respect to the SCE potential.
The polarogram parameters such as a limiting current ilim and E1/2 were determined by the graphic method. The number of electrons participating in the reaction was calculated on the basis of the analysis of the polarographic wave using the Geirovsky-Ilkovich equation.

[2] = Chronic toxicity, rectal suppositories: indexes of peripheral blood; conditions: male rats; for Basophiles / Juveniles: 1 month/2 months (one value given)
Protocol: The experiments were conducted on inbred rats. The experimental animals were selected in groups by a method of random sampling taking into account the body mass as a determining index; 24 males or 24 females for one preparation from compounds 2, 15, 23, 34, 37 investigated in one dose.
Two doses of preparations used in the experiments: 50 mg/kg and 500 mg/kg. Before the administration, the suppositories were softened by heating in a glass water bath at a temperature of 38-39° C., the soft mass was collected in tuberculin syringe in a volume of 1 ml, a needle with oliva was attached to the syringe, and the preparatory mass was introduced into the rectum of the animal for a depth of 1.5-2.0 cm. The animals of the control group were administered with sterile medical liquid paraffin in a volume corresponding to the volume of the investigated suppository. A complete course of administration of drugs to the animals was two months. A complex of laboratory diagnostic investigations was carried out one month after the beginning of the administration of the preparation to the animal—in a middle of the course (8 animals), two months after ending the course (8 animals) and three months after ending the recovery period of one month (8 animals). The mass of the body of the rats in the first month of administration of the preparation was determined weekly, and then once in two weeks. On the basis of the dynamics of an index of the mass of the animal body, the volume of preparation being administered was corrected taking into account the test dose.

[3] = suppositories 50 mg/kg, 1 month
[4] = suppositories 50 mg/kg, 2 months
[5] = suppositories 500 mg/kg, 1 month
[6] = suppositories 500 mg/kg, 2 months

Question: Which “half-wave potential more positive on reverse stroke than on forward stroke” value (“half-wave potential more positive” for short) [1] does the source give for `O=c1[nH][nH]c(=O)c2nccnc12.[Na]` [Compound 26, sodium salt of pyrazine[2,3-d]-6H-pyridazine-5,8-dione] here?
Answer: 27.0 mV

Question: Which “number of electrons participating in the reduction” value [1] does the source give for “sodium salt of 7-(β-O-ribofuranosile)pyrido[2,3-1]-6H-pyridazine-5,8-dione sodium salt [Compound 1]” here?
Answer: 3.72

Question: And the “i, mkA (polarographic wave current)” value ([1]; pH 7.0)?
Answer: 0.26 ± 0.04 mkA

Question: What about the “−E1/2, V (half-wave potential vs SCE)” value ([1]; pH 7.0) of the same molecule?
Answer: 0.11 ± 0.02 V

Question: And the “i, mkA (polarographic wave current)” value ([1]; pH 7.2)?
Answer: 0.31 ± 0.02 mkA

Question: What about the “−E1/2, V (half-wave potential vs SCE)” value ([1]; pH 7.2) of the same molecule?
Answer: 0.11 ± 0.03 V

Question: And the “i, mkA (polarographic wave current)” value ([1]; pH 7.4)?
Answer: 0.27 ± 0.03 mkA

Question: And the “−E1/2, V (half-wave potential vs SCE)” value ([1]; pH 7.4)?
Answer: 0.105 ± 0.01 V

Question: And the “i, mkA (polarographic wave current)” value ([1]; pH 7.6)?
Answer: 0.30 ± 0.01 mkA

Question: And the “−E1/2, V (half-wave potential vs SCE)” value ([1]; pH 7.6)?
Answer: 0.105 ± 0.02 V

Question: And the “half-wave potential more positive” value [1]?
Answer: 25.0 mV

Question: With `COP(=O)(OC)C(C)(C)CC(C)=O` [dimephosphon, dimethyl ester of 1,1-dimethyl-3-oxybuthyl of phosphonic acid, reference compound] as the molecule, how does the “number of electrons participating in the reduction” value [1] read?
Answer: 1.6

Question: And the “i, mkA (polarographic wave current)” value ([1]; pH 7.0)?
Answer: 0.10 ± 0.03 mkA

Question: And the “−E1/2, V (half-wave potential vs SCE)” value ([1]; pH 7.0)?
Answer: 0.175 ± 0.01 V

Question: And the “i, mkA (polarographic wave current)” value ([1]; pH 7.2)?
Answer: 0.12 ± 0.03 mkA

Question: And the “−E1/2, V (half-wave potential vs SCE)” value ([1]; pH 7.2)?
Answer: 0.17 ± 0.02 V

Question: What about the “i, mkA (polarographic wave current)” value ([1]; pH 7.4) of the same molecule?
Answer: 0.11 ± 0.02 mkA

Question: What about the “−E1/2, V (half-wave potential vs SCE)” value ([1]; pH 7.4) of the same molecule?
Answer: 0.18 ± 0.01 V

Question: And the “i, mkA (polarographic wave current)” value ([1]; pH 7.6)?
Answer: 0.11 ± 0.02 mkA

Question: What about the “−E1/2, V (half-wave potential vs SCE)” value ([1]; pH 7.6) of the same molecule?
Answer: 0.18 ± 0.01 V

Question: And the “half-wave potential more positive” value [1]?
Answer: 50.0 mV

Question: What does the source list for `O=C([O-])c1ncnc2c(=O)n([C@@H]3O[C@H](CO)[C@@H](O)[C@H]3O)[nH]c(=O)c12.[Na+]` [Compound 34, sodium salt of 4-carboxy-7-(β-D-ribofuranosile)pyrimido[4,5-D]-6H-pyridazine-5,8-dione]?
Answer: Average volume of erythrocytes [2, 3]: 81.6 ± 1.9 Mkm^3; Coagulation, time [2, 3]: 148 ± 16 s; Eosinophiles [2, 3]: 3.5 ± 1.0%; Erythrocytes [2, 3]: 5.6 ± 0.1 mln/mm^3; Haematocrite [2, 3]: 46.9 ± 1.1%; Hemoglobin [2, 3]: 10.6 ± 0.1 mmol/L; Leukocyte [2, 3]: 15.9 ± 1.3 thousand/mm^3; REE [2, 3]: 1.8 ± 0.5 mm/h; Reticulocytes [2, 3]: 2.7 ± 0.1%; Stab neutrophil [2, 3]: 1.0 ± 0.4%; Thrombocytes [2, 3]: 670 ± 23; Basophiles ([2]; suppositories 50 mg/kg): 0%; Juveniles ([2]; suppositories 50 mg/kg): 0%; Average volume of erythrocytes [2, 4]: 76.7 ± 1.9 Mkm^3; Coagulation, time [2, 4]: 321 ± 10 s; Eosinophiles [2, 4]: 4.1 ± 0.4%; Erythrocytes [2, 4]: 6.1 ± 0.2 mln/mm^3; Haematocrite [2, 4]: 47.5 ± 1.2%; Hemoglobin [2, 4]: 11.1 ± 0.2 mmol/L; Leukocyte [2, 4]: 17.8 ± 1.4 thousand/mm^3; REE [2, 4]: 1.7 ± 0.3 mm/h; Reticulocytes [2, 4]: 2.9 ± 0.2%; Stab neutrophil [2, 4]: 1.8 ± 0.5%; Thrombocytes [2, 4]: 610 ± 15; Average volume of erythrocytes [2, 5]: 84.1 ± 1.3 Mkm^3; Eosinophiles [2, 5]: 3.0 ± 0.9%; Erythrocytes [2, 5]: 5.6 ± 0.2 mln/mm^3; Haematocrite [2, 5]: 48.1 ± 1.5%; Hemoglobin [2, 5]: 10.6 ± 0.3 mmol/L; Leukocyte [2, 5]: 16.9 ± 1.0 thousand/mm^3; REE [2, 5]: 2.0 ± 0.4 mm/h; Reticulocytes [2, 5]: 3.2 ± 0.2%; Stab neutrophil [2, 5]: 0.9 ± 0.2%; Thrombocytes [2, 5]: 682 ± 24; Basophiles ([2]; suppositories 500 mg/kg): 0%; Juveniles ([2]; suppositories 500 mg/kg): 0%; Average volume of erythrocytes [2, 6]: 83.8 ± 1.5 Mkm^3; Coagulation, time [2, 6]: 312 ± 9 s; Eosinophiles [2, 6]: 3.9 ± 1.4%; Erythrocytes [2, 6]: 6.6 ± 0.1 mln/mm^3; Haematocrite [2, 6]: 53.1 ± 1.6%; Hemoglobin [2, 6]: 12.4 ± 0.4 mmol/L; Leukocyte [2, 6]: 22.1 ± 1.1 thousand/mm^3; REE [2, 6]: 1.8 ± 0.2 mm/h; Reticulocytes [2, 6]: 3.5 ± 0.3%; Stab neutrophil [2, 6]: 1.4 ± 0.3%; Thrombocytes [2, 6]: 631 ± 26
